Source: PMC12920416, “Preclinical development of [^18F]TAAR1-2203 as a PET radioligand for imaging TAAR1 expression and receptor occupancy” (European Journal of Nuclear Medicine and Molecular Imaging, 2025)

Experiments:
[1] = Serum stability, mouse serum; format: in vitro ADME; conditions: 60 min, 37 °C
Description: (§1) The stability of [^18F]TAAR1-2203 was assessed in mouse, rat, NHP, and human serum. Aliquots (400 µL) of serum were preincubated at 37 °C for 5 min, followed by the addition of [^18F]TAAR1-2203 (20 µL, 300 µCi/11.1 MBq). After 60 min, 200 µL of each sample was collected, quenched with ice-cold MeCN (200 µL), centrifuged at 10,000 g for 5 min, and analyzed by radio-HPLC (XBridge C18 column, 3.5 μm, 4.6 mm × 150 mm; CH3CN/H2O 35:65 with 0.1% TEA; flow rate 1.0 mL/min). Experiments in PBS served as negative controls, and benfluorex hydrochloride was used as a positive control.

[2] = Serum stability, rat serum; format: in vitro ADME; conditions: 60 min, 37 °C
Description: as §1

[3] = Serum stability, NHP serum; format: in vitro ADME, non-human primate; conditions: 60 min, 37 °C
Description: as §1

[4] = Serum stability, human serum; format: in vitro ADME; conditions: 60 min, 37 °C
Description: as §1

[5] = Microsomal stability, mouse liver microsomes; format: in vitro ADME; conditions: after 60 min, 37 °C, printed as rodent microsomes
Description: Microsomal stability of [^18F]TAAR1-2203 was evaluated using mouse, rat, NHP, and human liver microsomes. Potassium phosphate buffer (340 µL, 0.5 M, pH 7.4) was combined with NADPH regenerating solution (40 µL, 10 mM). Radiotracer solution (10 µL, 150 µCi, 5.5 MBq) was added, and the mixture was preincubated at 37 °C for 5 min. Liver microsomes (20 µL) were subsequently added. Incubations were carried out at 37 °C with gentle shaking. At 30 and 60 min, 200 µL aliquots were quenched with ice-cold MeCN (200 µL), centrifuged at 10,000 g for 5 min, and analyzed using an AR-2000 radio-TLC imaging scanner (Eckert & Ziegler).

[6] = Plasma protein binding of tracer, mouse plasma; format: in vitro ADME; conditions: radiotracer, 10 min incubation, ultrafiltration, read-out: Free fraction in mouse plasma
Description: (§2) Plasma protein binding of [^18F]TAAR1-2203 was determined in mouse, rat, NHP, and human plasma. Plasma samples (150 µL, n = 3) were preincubated at 37 °C for 5 min before addition of [^18F]TAAR1-2203 (10 µCi, 0.37 MBq). After 10 min of incubation, 300 µL of ice-cold PBS were added. Samples (300 µL) were then transferred onto Amicon® centrifugal filter units (10 kDa cut-off) and centrifuged at 2100 g for 15 min at 4 °C. Filtrates were washed with 300 µL PBS and centrifuged again. Radioactivity in the filtrate and protein-bound fractions was measured using a Packard Cobra 5002/5003 gamma counter.

[7] = Plasma protein binding of tracer, rat plasma; format: in vitro ADME; conditions: radiotracer, 10 min incubation, ultrafiltration, read-out: Free fraction in rat plasma
Description: as §2

[8] = Plasma protein binding of tracer, NHP plasma; format: in vitro ADME; conditions: non-human primate, radiotracer, 10 min incubation, ultrafiltration, read-out: Free fraction in NHP plasma
Description: as §2

[9] = Plasma protein binding of tracer, human plasma; format: in vitro ADME; conditions: radiotracer, 10 min incubation, ultrafiltration, read-out: Free fraction in human plasma
Description: as §2

[10] = biological target: T1, TAAR1 (Mus musculus, UniProt Q923Y8); test: In vitro autoradiography, mouse pancreas and kidney sections; format: binding, CD1 mice; conditions: tracer 5–8 nM; blockade with RO5333943 or RO5425754 at 10 µM
T1 construct: peripheral organs that express endogenous TAAR1; tissue Charles River (wild-type); F. Hoffmann-La Roche Ltd. (TAAR1 knock-out and matched controls); host or cells: mouse pancreas, kidney, liver, brain
Description: (§3) In vitro autoradiography experiments with [^18F]TAAR1-2203 were conducted on mouse and rat pancreas, kidney and brain tissue sections, respectively. Tissue Sect. (20 μm) were thawed on ice for 10 min and preincubated in assay buffer (50 mM Tris, pH 7.4) for 10 min. Subsequently, sections were incubated with [^18F]TAAR1-2203 for 40 min at ambient temperature. For blocking studies, structurally distinct TAAR1 agonists, RO5333943 or RO5425754, were added in excess to the assay buffer at a final concentration of 10 µM. After incubation, sections were washed in assay buffer for 2 min on ice and dipped briefly in water (2 × 5 s), followed by drying and exposure to a phosphor imager plate for 60 min. Imager plates were scanned on an Amersham Typhoon analyzer system, and images were analyzed using ImageQuant TL 8.1, as previously reported.

[11] = biological target: T2, TAAR1 (Rattus norvegicus, UniProt Q923Y9); test: In vitro autoradiography, rat pancreas and kidney sections; format: binding, Sprague Dawley rats; conditions: tracer 5–8 nM; blockade with RO5333943 or RO5425754 at 10 µM
T2 construct: peripheral organs that express endogenous TAAR1; tissue Charles River; host or cells: rat pancreas, kidney
Description: as §3

[12] = biological target: T1, TAAR1; test: In vitro autoradiography, TAAR1 knockout vs wild-type mouse tissue sections; format: binding
Description: as §3

[13] = biological target: T1, TAAR1; test: Dynamic PET imaging, baseline vs blockade; format: in vivo, CD1 mice
Description: Dynamic PET imaging was performed for 60 min in female C57BL/6 mice, as well as in TAAR1 knock-out mice and respective controls, under 1–2% (v/v) isoflurane anaesthesia as previously reported. [^18F]TAAR1-2203 (1.5 MBq in 100 µL saline) was administered via tail vein injection. For blocking studies, TAAR1 agonist RO5425754 (4 mg/kg) was injected 5 min prior to radiotracer administration. Dynamic PET scans were acquired using a G8 PET/CT scanner (Sofie Biosciences, Culver, CA, USA) and analyzed with PMOD software (PMOD Technologies Ltd., Zurich, Switzerland). Radioactivity was decay-corrected and expressed as standardized uptake values (SUVs), normalized to body weight and injected dose.

[14] = PET, blockade with RO5425754 4 mg/kg

T1 sequence (Q923Y8 whole entry): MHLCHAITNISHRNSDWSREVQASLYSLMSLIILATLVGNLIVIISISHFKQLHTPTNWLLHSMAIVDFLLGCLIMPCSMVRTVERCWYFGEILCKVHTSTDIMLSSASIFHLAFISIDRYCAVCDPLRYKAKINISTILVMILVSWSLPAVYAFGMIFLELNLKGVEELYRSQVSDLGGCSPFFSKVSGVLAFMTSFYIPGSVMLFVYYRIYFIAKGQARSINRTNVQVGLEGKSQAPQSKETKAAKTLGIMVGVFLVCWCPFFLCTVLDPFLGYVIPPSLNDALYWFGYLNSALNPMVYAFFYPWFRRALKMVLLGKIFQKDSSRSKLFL
T2 sequence (Q923Y9 whole entry): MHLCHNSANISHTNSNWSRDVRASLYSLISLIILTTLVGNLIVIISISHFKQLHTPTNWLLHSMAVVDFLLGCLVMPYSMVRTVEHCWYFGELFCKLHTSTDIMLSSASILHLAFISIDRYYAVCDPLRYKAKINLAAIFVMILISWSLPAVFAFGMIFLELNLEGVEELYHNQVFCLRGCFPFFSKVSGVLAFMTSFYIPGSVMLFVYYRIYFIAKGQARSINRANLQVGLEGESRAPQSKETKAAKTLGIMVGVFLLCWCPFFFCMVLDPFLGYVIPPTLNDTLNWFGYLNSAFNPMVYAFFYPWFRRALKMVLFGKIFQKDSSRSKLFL

Cc1c([18F])cccc1[C@H]1COC(N)=N1 [[^18F]TAAR1-2203]
Intact parent tracer in mouse serum [1]: > 99% | Intact parent tracer in rat serum [2]: > 99% | Intact parent tracer in NHP serum [3]: > 99% | Intact parent tracer in human serum [4]: > 99% | Intact tracer in mouse liver microsomes [5]: > 98% | fraction unbound at 10 min, 2.47 MBq/mL [6]: ~0.6 | fraction unbound at 10 min, 2.47 MBq/mL [7]: ~0.6 | fraction unbound at 10 min, 2.47 MBq/mL [8]: ~0.6 | fraction unbound at 10 min [9]: ~0.6 | Reduction of tracer binding, mouse kidney [10]: greater than 70% | Reduction of tracer binding, mouse pancreas [10]: more than 50% | Reduction of tracer binding, rat kidney [11]: greater than 70% | Reduction of tracer binding, rat pancreas [11]: more than 50% | Tracer signal in brain tissue, TAAR1 KO vs WT mice [12]: comparably low in both WT and KO animals | Change in tracer binding in kidney of TAAR1 KO vs WT mice ([12]; n = 6, p < 0.001): −50% | Change in tracer binding in pancreas of TAAR1 KO vs WT mice ([12]; n = 6, p < 0.001): −32% | Specific binding in the CNS ([13]; PET imaging and in vitro autoradiography): no specific TAAR1 binding was observed | Tracer uptake in kidney (AUC 0–60 min), blockade vs baseline [13, 14]: significant reduction | Tracer uptake in pancreas (AUC 0–60 min), blockade vs baseline [13, 14]: significant reduction
